Experimental data: the supplement of paper PMC10307832

Key:
Assay in all cases: relative viability (nuclei count vs DMSO), 5 days (fraction); higher = more cells survive
[1] = compound: CO[C@@H]1[C@H](N(C)C(=O)c2ccccc2)C[C@H]2O[C@]1(C)n1c3ccccc3c3c4c(c5c6ccccc6n2c5c31)C(=O)NC4 [Midostaurin] + CC(=O)c1c(C)c2cnc(Nc3ccc(N4CCNCC4)cn3)nc2n(C2CCCC2)c1=O [Palbociclib] (partner 0.5 µM)
Method in brief: (§1)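 Medians of duplicate plates are given as relative viability. That measure is the nuclei count in treated wells divided by the count in vehicle wells. Counts were taken on 4× images of lung cancer cell lines in 1536-well plates, 5 days after pin-tool dosing the day after seeding with one drug alone or a fixed anchor-drug dose plus five library-drug doses (not always all listed) in √10 steps.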

Midostaurin + Bortezomib = compound: CO[C@@H]1[C@H](N(C)C(=O)c2ccccc2)C[C@H]2O[C@]1(C)n1c3ccccc3c3c4c(c5c6ccccc6n2c5c31)C(=O)NC4 [Midostaurin] + CC(C)C[C@H](NC(=O)[C@H](Cc1ccccc1)NC(=O)c1cnccn1)B(O)O [Bortezomib] (partner 0.002 µM)
Method in brief: as §1

Midostaurin + Crizotinib = compound: CO[C@@H]1[C@H](N(C)C(=O)c2ccccc2)C[C@H]2O[C@]1(C)n1c3ccccc3c3c4c(c5c6ccccc6n2c5c31)C(=O)NC4 [Midostaurin] + C[C@@H](Oc1cc(-c2cnn(C3CCNCC3)c2)cnc1N)c1c(Cl)ccc(F)c1Cl [Crizotinib] (partner 1 µM)
Method in brief: as §1

[2] = compound: COc1cc(-c2nn([C@H]3CC[C@H](N4CCN(C(C)=O)CC4)CC3)c3ncnc(N)c23)ccc1NC(=O)c1cc2ccccc2n1C + CC(C)C[C@H](NC(=O)[C@H](Cc1ccccc1)NC(=O)c1cnccn1)B(O)O [Bortezomib] (partner 0.002 µM)
Method in brief: as §1

[3] = compound: COc1cc(-c2nn([C@H]3CC[C@H](N4CCN(C(C)=O)CC4)CC3)c3ncnc(N)c23)ccc1NC(=O)c1cc2ccccc2n1C + CS(=O)(=O)N1CCN(Cc2cc3nc(-c4cccc5[nH]ncc45)nc(N4CCOCC4)c3s2)CC1 [Pictilisib] (partner 1 µM)
Method in brief: as §1

| Cell Line | relative viability ([1]; first compound 0.01 µM) | relative viability ([1]; first compound 0.03162 µM) | relative viability ([1]; first compound 0.1 µM) | relative viability ([1]; first compound 0.3162 µM) | relative viability (Midostaurin + Bortezomib; first compound 0.01 µM) | relative viability (Midostaurin + Bortezomib; first compound 0.03162 µM) | relative viability (Midostaurin + Bortezomib; first compound 0.1 µM) | relative viability (Midostaurin + Bortezomib; first compound 0.3162 µM) | relative viability (Midostaurin + Crizotinib; first compound 0.01 µM) | relative viability (Midostaurin + Crizotinib; first compound 0.03162 µM) | relative viability (Midostaurin + Crizotinib; first compound 0.1 µM) | relative viability (Midostaurin + Crizotinib; first compound 0.3162 µM) | relative viability ([2]; first compound 0.0128 µM) | relative viability ([2]; first compound 0.04048 µM) | relative viability ([2]; first compound 0.128 µM) | relative viability ([2]; first compound 1.28 µM) | relative viability ([3]; first compound 0.0128 µM) | relative viability ([3]; first compound 0.04048 µM) | relative viability ([3]; first compound 0.128 µM) | relative viability ([3]; first compound 1.28 µM) |
| --- | --- | --- | --- | --- | --- | --- | --- | --- | --- | --- | --- | --- | --- | --- | --- | --- | --- | --- | --- | --- |
| NCI-H460 | 0.13 | 0.195 | 0.183 | 0.0929 | 1.19 | 1.19 | 1.01 | 1.1 | 0.903 | 0.75 | 0.898 | 0.787 | 1.14 | 1.26 | 1.09 | 0.99 | 0.164 | 0.314 | 0.345 | 0.368 |
| NCI-H1666 | 0.634 | 0.669 | 0.661 | 0.657 | 0.852 | 0.894 | 0.882 | 0.888 | 0.874 | 1.12 | 0.858 | 0.787 | 0.946 | 0.859 | 0.807 | 0.68 | 0.521 | 0.367 | 0.394 | 0.397 |
| NCI-H1651 | 0.518 | 0.52 | 0.525 | 0.53 | 0.955 | 1.01 | 1.02 | 1.03 | 0.916 | 0.85 | 0.918 | 0.889 | 0.85 | 0.949 | 0.939 | 0.84 | 0.489 | 0.525 | 0.483 | 0.43 |
| NCI-H1755 | 0.482 | 0.433 | 0.429 | 0.383 | 0.914 | 0.912 | 0.887 | 0.755 | 0.808 | 0.805 | 0.761 | 0.484 | 1.06 | 0.993 | 1.03 | 0.86 | 0.509 | 0.169 | 0.402 | 0.299 |
| NCI-H661 | 0.399 | 0.41 | 0.438 | 0.469 | 0.742 | 0.933 | 0.667 | 0.72 | 0.931 | 0.928 | 0.918 | 0.982 | 0.879 | 0.823 | 0.709 | 0.384 | 0.39 | 0.344 | 0.392 | 0.254 |
| HARA | 0.316 | 0.283 | 0.278 | 0.242 | 1.12 | 1.03 | 1.07 | 1.12 | 0.902 | 0.977 | 0.86 | 0.958 | 1.12 | 1.16 | 1.1 | 0.803 | 0.454 | 0.395 | 0.349 | 0.362 |
| NCI-H23 | 0.49 | 0.506 | 0.377 | 0.309 | 1.03 | 0.999 | 0.923 | 1.06 | 0.479 | 0.512 | 0.355 | 0.41 | 1.06 | 0.682 | 1.18 | 0.883 | 0.36 | 0.298 | 0.403 | 0.457 |
| LCLC-97TM1 | 0.276 | 0.233 | 0.251 | 0.244 | 0.475 |  | 0.419 | 0.595 | 0.418 |  | 0.205 | 0.304 | 0.35 | 0.327 | 0.567 | 0.584 | 0.229 | 0.107 | 0.227 | 0.281 |
| EPLC-272H | 0.291 | 0.355 | 0.302 | 0.3 | 0.921 | 0.927 | 1.05 | 1.11 | 0.875 | 0.998 | 1.07 | 0.926 | 0.993 | 0.933 | 0.952 | 0.902 | 0.369 | 0.258 | 0.29 | 0.311 |
| NCI-H1915 | 0.451 | 0.523 | 0.531 | 0.524 | 0.936 | 1 | 0.968 | 0.993 | 0.889 | 0.889 | 0.979 | 0.94 | 1.05 | 1.03 | 0.931 | 0.929 | 0.968 | 0.532 | 0.939 | 0.879 |
| NCI-H2405 | 0.534 | 0.575 | 0.521 | 0.51 | 1.02 | 0.985 | 0.979 | 1.01 | 0.787 | 0.825 | 0.797 | 0.842 | 0.939 |  | 0.936 | 0.668 | 0.422 | 0.26 | 0.303 | 0.258 |
| NCI-H322M | 0.475 | 0.483 | 0.528 | 0.559 | 1.37 | 1.27 | 1.17 | 1.34 | 0.982 | 0.948 | 0.912 | 0.905 | 1.23 | 1.52 | 1.17 | 1.17 | 0.521 | 0.449 | 0.51 | 0.463 |
| NCI-H838 | 0.237 | 0.229 | 0.251 | 0.185 | 0.886 | 0.91 | 0.638 | 0.448 | 0.877 | 0.634 | 0.812 | 0.524 | 1.18 | 0.817 | 0.578 | 0.628 | 0.403 | 0.397 | 0.38 | 0.338 |
| CAL-12T | 0.513 | 0.492 | 0.405 | 0.308 | 1 | 0.922 | 0.88 | 0.796 | 0.616 | 0.572 | 0.646 | 0.251 | 1.11 | 0.943 | 0.938 | 0.972 | 0.392 | 0.397 | 0.512 | 0.281 |
